The record followed here is patent US10717716B2, “1,3,4-oxadiazole derivative compounds as histone deacetylase 6 inhibitor, and the pharmaceutical composition comprising the same” (Chong Kun Dang Pharmaceutical Corp., priority 2015, dated 2020).

In this assay the target is T1, human recombinant HDAC6 (Homo sapiens, UniProt Q9UBN7).
T1 construct: purchased Calbiochem 382180
T1 sequence (Q9UBN7 1-1215): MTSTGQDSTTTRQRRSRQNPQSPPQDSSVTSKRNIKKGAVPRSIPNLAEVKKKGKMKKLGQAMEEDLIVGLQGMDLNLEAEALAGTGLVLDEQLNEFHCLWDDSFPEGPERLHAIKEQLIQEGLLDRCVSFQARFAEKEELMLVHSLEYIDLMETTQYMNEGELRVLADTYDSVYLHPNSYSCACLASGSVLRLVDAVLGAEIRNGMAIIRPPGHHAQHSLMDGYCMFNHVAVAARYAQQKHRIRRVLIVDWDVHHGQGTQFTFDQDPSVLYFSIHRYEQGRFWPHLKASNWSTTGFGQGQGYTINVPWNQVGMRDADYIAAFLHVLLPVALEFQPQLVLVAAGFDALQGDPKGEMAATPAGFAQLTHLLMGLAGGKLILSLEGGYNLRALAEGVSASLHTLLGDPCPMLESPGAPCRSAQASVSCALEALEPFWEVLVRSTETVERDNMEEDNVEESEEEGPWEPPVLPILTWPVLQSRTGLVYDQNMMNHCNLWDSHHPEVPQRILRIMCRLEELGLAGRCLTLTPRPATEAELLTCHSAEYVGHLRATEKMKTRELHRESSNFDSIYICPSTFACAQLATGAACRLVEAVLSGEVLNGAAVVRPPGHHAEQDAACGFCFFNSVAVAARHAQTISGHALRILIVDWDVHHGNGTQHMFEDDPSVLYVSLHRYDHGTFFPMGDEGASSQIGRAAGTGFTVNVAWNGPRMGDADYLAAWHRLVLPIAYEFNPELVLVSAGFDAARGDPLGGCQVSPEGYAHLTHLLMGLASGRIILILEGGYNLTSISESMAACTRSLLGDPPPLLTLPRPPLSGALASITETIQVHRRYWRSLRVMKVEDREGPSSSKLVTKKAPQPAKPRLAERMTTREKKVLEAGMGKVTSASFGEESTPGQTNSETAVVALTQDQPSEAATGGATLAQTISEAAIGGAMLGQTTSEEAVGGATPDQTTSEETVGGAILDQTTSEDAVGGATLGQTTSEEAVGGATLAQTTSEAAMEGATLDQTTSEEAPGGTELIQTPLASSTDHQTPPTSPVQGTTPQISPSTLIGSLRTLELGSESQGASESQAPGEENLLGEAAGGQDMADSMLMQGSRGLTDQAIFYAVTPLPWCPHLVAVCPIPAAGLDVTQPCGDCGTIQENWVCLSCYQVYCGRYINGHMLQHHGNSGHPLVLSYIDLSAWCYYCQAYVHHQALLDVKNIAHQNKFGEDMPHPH
The assay is described as follows: HDAC6 enzyme activity inhibition assay (HDAC Fluorimetric Drug Discovery Kit). It counts as biochemical. Conditions: for HDAC6 selectivity (fold): HDAC6 over HDAC1; for IC50: human recombinant HDAC6, same protocol as HDAC1, read-out: HDAC6. The method, boiled down: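 Human recombinant HDAC1 or HDAC6 (0.3 μg) reacted with 10 μM Fluor de Lys-SIRT1 substrate and 5-fold compound dilutions for 60 min at 30 °C. Developer II added for 30 min, fluorescence read at Ex 360/Em 460; IC50 calculated from the readings.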

For `CN1CCN(CCNC(=O)N(Cc2ccc(-c3nnc(C(F)F)o3)cc2F)c2ccccc2)CC1` [Compound 21993, 1-(4-(5-(Difluoromethyl)-1,3,4-oxadiazol-2-yl)-2-fluorobenzyl)-3-(2-(4-methylpiperazin-1-yl)ethyl)-1-phenylurea], the “HDAC6 selectivity (fold)” value was found to be 117 fold and the IC50 came to 86 nM.

As to `CCN1CCN(CCNC(=O)N(Cc2ccc(-c3nnc(C(F)F)o3)cc2F)c2ccccc2)CC1` [Compound 21994, 1-(4-(5-(Difluoromethyl)-1,3,4-oxadiazol-2-yl)-2-fluorobenzyl)-3-(2-(4-ethylpiperazin-1-yl)ethyl)-1-phenylurea], the “HDAC6 selectivity (fold)” value worked out at 81 fold and the IC50 amounted to 123 nM.

Take `CC(=O)N1CCN(CCNC(=O)N(Cc2ccc(-c3nnc(C(F)F)o3)cc2F)c2ccccc2)CC1` [Compound 21995, 3-(2-(4-Acetylpiperazin-1-yl)ethyl)-1-(4-(5-(difluoromethyl)-1,3,4-oxadiazol-2-yl)-2-fluorobenzyl)-1-phenylurea]: the “HDAC6 selectivity (fold)” value was found to be 111 fold and the IC50 was 90 nM.

`O=C(NCCN1CCN(CCO)CC1)N(Cc1ccc(-c2nnc(C(F)F)o2)cc1F)c1ccccc1` [Compound 21996, 1-(4-(5-(Difluoromethyl)-1,3,4-oxadiazol-2-yl)-2-fluorobenzyl)-3-(2-(4-(2-hydroxyethyl)piperazin-1-yl)ethyl)-1-phenylurea]: the “HDAC6 selectivity (fold)” value stood at 108 fold and the IC50 turned out to be 92 nM.

As for `COCCN1CCN(CCNC(=O)N(Cc2ccc(-c3nnc(C(F)F)o3)cc2F)c2ccccc2)CC1` [Compound 21997, 1-(4-(5-(Difluoromethyl)-1,3,4-oxadiazol-2-yl)-2-fluorobenzyl)-3-(2-(4-(2-methoxyethyl)piperazin-1-yl)ethyl)-1-phenylurea], the “HDAC6 selectivity (fold)” value is given as 109 fold and the IC50 was 91 nM.

As to `O=C(NCCN1CCN(CCCO)CC1)N(Cc1ccc(-c2nnc(C(F)F)o2)cc1F)c1ccccc1` [Compound 21998, 1-(4-(5-(Difluoromethyl)-1,3,4-oxadiazol-2-yl)-2-fluorobenzyl)-3-(2-(4-(3-hydroxypropyl)piperazin-1-yl)ethyl)-1-phenylurea], the “HDAC6 selectivity (fold)” value stood at 153 fold and the IC50 was determined as 66 nM.

On to `CC(=O)N1CCCN(CCNC(=O)N(Cc2ccc(-c3nnc(C(F)F)o3)cc2F)c2ccccc2)CC1` [Compound 21999, 3-(2-(4-Acetyl-1,4-diazepan-1-yl)ethyl)-1-(4-(5-(difluoromethyl)-1,3,4-oxadiazol-2-yl)-2-fluorobenzyl)-1-phenylurea], for which the “HDAC6 selectivity (fold)” value worked out at 85 fold and the IC50 stood at 117 nM.

As for `O=C(NCCN1CCCN(Cc2ccccc2)CC1)N(Cc1ccc(-c2nnc(C(F)F)o2)cc1F)c1ccccc1` [Compound 22000, 3-(2-(4-Benzyl-1,4-diazepan-1-yl)ethyl)-1-(4-(5-(difluoromethyl)-1,3,4-oxadiazol-2-yl)-2-fluorobenzyl)-1-phenylurea], the “HDAC6 selectivity (fold)” value was 61 fold and the IC50 is 165 nM.

In the case of `O=C(C1CC1)N1CCN(CCNC(=O)N(Cc2ccc(-c3nnc(C(F)F)o3)cc2F)c2ccccc2)CC1` [Compound 22001, 3-(2-(4-(Cyclopropanecarbonyl)piperazin-1-yl)ethyl)-1-(4-(5-(difluoromethyl)-1,3,4-oxadiazol-2-yl)-2-fluorobenzyl)-1-phenylurea], the “HDAC6 selectivity (fold)” value was 116 fold and the IC50 was determined as 87 nM.

`CN(C)CCCN1CCN(CCNC(=O)N(Cc2ccc(-c3nnc(C(F)F)o3)cc2F)c2ccccc2)CC1` [Compound 22002, 1-(4-(5-(Difluoromethyl)-1,3,4-oxadiazol-2-yl)-2-fluorobenzyl)-3-(2-(4-(3-(dimethylamino)propyl)piperazin-1-yl)ethyl)-1-phenylurea]: the “HDAC6 selectivity (fold)” value is given as 85 fold and the IC50 worked out at 118 nM.

`O=C(NCCN1CCC(N2CCOCC2)CC1)N(Cc1ccc(-c2nnc(C(F)F)o2)cc1F)c1ccccc1` [Compound 22003, 1-(4-(5-(Difluoromethyl)-1,3,4-oxadiazol-2-yl)-2-fluorobenzyl)-3-(2-(4-morpholinopiperidin-1-yl)ethyl)-1-phenylurea]: the “HDAC6 selectivity (fold)” value was found to be 99 fold and the IC50 was determined as 101 nM.

In the case of `O=C(NCCN1CCC(Cc2ccccc2)CC1)N(Cc1ccc(-c2nnc(C(F)F)o2)cc1F)c1ccccc1` [Compound 22004, 3-(2-(4-Benzylpiperidin-1-yl)ethyl)-1-(4-(5-(difluoromethyl)-1,3,4-oxadiazol-2-yl)-2-fluorobenzyl)-1-phenylurea], the “HDAC6 selectivity (fold)” value is 24 fold and the IC50 was 412 nM.

As for `Cc1noc(C2CCN(CCNC(=O)N(Cc3ccc(-c4nnc(C(F)F)o4)cc3F)c3ccccc3)CC2)n1` [Compound 22005, 1-(4-(5-(Difluoromethyl)-1,3,4-oxadiazol-2-yl)-2-fluorobenzyl)-3-(2-(4-(3-methyl-1,2,4-oxadiazol-5-yl)piperidin-1-yl)ethyl)-1-phenylurea], the “HDAC6 selectivity (fold)” value turned out to be 79 fold and the IC50 is 126 nM.

On to `CCN(CCNC(=O)N(Cc1ccc(-c2nnc(C(F)F)o2)cc1F)c1ccccc1)Cc1ccccc1` [Compound 22006, 3-(2-(Benzyl(ethyl)amino)ethyl)-1-(4-(5-(difluoromethyl)-1,3,4-oxadiazol-2-yl)-2-fluorobenzyl)-1-phenylurea], for which the “HDAC6 selectivity (fold)” value stood at 37 fold and the IC50 came out at 270 nM.

`O=C(NCCN1CCN(c2ccccc2)CC1)N(Cc1ccc(-c2nnc(C(F)F)o2)cc1F)c1ccccc1` [Compound 22007, 1-(4-(5-(Difluoromethyl)-1,3,4-oxadiazol-2-yl)-2-fluorobenzyl)-1-phenyl-3-(2-(4-phenylpiperazin-1-yl)ethyl)urea]: the “HDAC6 selectivity (fold)” value came to 40 fold and the IC50 came to 249 nM.

On to `O=C(NCCN1CCN(c2ccccn2)CC1)N(Cc1ccc(-c2nnc(C(F)F)o2)cc1F)c1ccccc1` [Compound 22008, 1-(4-(5-(Difluoromethyl)-1,3,4-oxadiazol-2-yl)-2-fluorobenzyl)-1-phenyl-3-(2-(4-(pyridin-2-yl)piperazin-1-yl)ethyl)urea], for which the “HDAC6 selectivity (fold)” value was determined as 73 fold and the IC50 turned out to be 138 nM.

Regarding `O=C(NCCN1CCN(c2ccncc2)CC1)N(Cc1ccc(-c2nnc(C(F)F)o2)cc1F)c1ccccc1` [Compound 22009, 1-(4-(5-(Difluoromethyl)-1,3,4-oxadiazol-2-yl)-2-fluorobenzyl)-1-phenyl-3-(2-(4-(pyridin-4-yl)piperazin-1-yl)ethyl)urea], the “HDAC6 selectivity (fold)” value is recorded as 97 fold and the IC50 stood at 103 nM.

As to `O=C(NCCN1CCN(c2ccc(F)cc2)CC1)N(Cc1ccc(-c2nnc(C(F)F)o2)cc1F)c1ccccc1` [Compound 22010, 1-(4-(5-(Difluoromethyl)-1,3,4-oxadiazol-2-yl)-2-fluorobenzyl)-3-(2-(4-(4-fluorophenyl)piperazin-1-yl)ethyl)-1-phenylurea], the “HDAC6 selectivity (fold)” value was found to be 29 fold and the IC50 stood at 341 nM.

Turning to `O=C(NCCN1CCN(c2noc3ccccc23)CC1)N(Cc1ccc(-c2nnc(C(F)F)o2)cc1F)c1ccccc1` [Compound 22011, 3-(2-(4-(Benzo[d]isoxazol-3-yl)piperazin-1-yl)ethyl)-1-(4-(5-(difluoromethyl)-1,3,4-oxadiazol-2-yl)-2-fluorobenzyl)-1-phenylurea], the “HDAC6 selectivity (fold)” value was 31 fold and the IC50 amounted to 320 nM.

In the case of `O=C(NCCN1CCN(c2ccc(Cl)c(Cl)c2)CC1)N(Cc1ccc(-c2nnc(C(F)F)o2)cc1F)c1ccccc1` [Compound 22012, 3-(2-(4-(3,4-Dichlorophenyl)piperazin-1-yl)ethyl)-1-(4-(5-(difluoromethyl)-1,3,4-oxadiazol-2-yl)-2-fluorobenzyl)-1-phenylurea], the “HDAC6 selectivity (fold)” value is 10 fold and the IC50 came to 1020 nM.
